Tests used:
B16BL6 melanoma cells = assay: metastasis of B16BL6 melanoma cells (lung metastatic deposits in mice); format: in vivo, mouse; conditions: BL6 cells injected into mice; irrespective of route or timing
Method: BL6 cells were injected into mice and metastatic deposits in the lung were assessed after various treatments including route and timing, of administration.

neutrophils [1] = assay: superoxide production in neutrophils (reduction of cytochrome C); format: cell-based, human
Method: Human neutrophils were obtained from normal male adults. Heparinized peripheral blood was mixed gently with an equal amount of 1% dextran solution in PBS in a 60 ml injection syringe. The mixture was allowed to sit vertically for 60 to 90 minutes at 37° C. The upper phase, which is rich in white blood cells, was mounted gently on the same volume of Ficoll-Paque (Pharmacia LKB, Uppsala, Sweden) in Falcon 2095 plastic test tubes (Becton Dickinson Labware, Lincoln Park, N.J.). Centrifugation at 450g for 30 min at 4° C. brought the neutrophils to the bottom of the tubes. The upper phase and interface, which contains lymphocytes, were removed carefully by aspiration.
Contaminating erythrocytes were removed from the cell pellet by hypotonic lysis by resuspending the cell pellet in ice-cold distilled water for 30 sec then adding an equal volume of ice-cold 1.8% NaCl solution. After centrifugation at 80g for 10 min, the cells were resuspended with a suitable buffer or media.
The final preparation consisted of more than 98% neutrophils, as determined by Wright-Giemsa staining. The suspension was stored at 4° C. and used within 3 hr.

[2] = tested on: 40 kD (or 47 kD) platelet protein; assay: phosphorylation of platelet protein on thrombin stimulation; format: cell-based
Source text: On thrombin stimulation, a 40 kD (or 47 kD) platelet protein is phosphorylated. […] While not wanting to be bound by their statement, the inventors believe that absence of phosphorylated 40 kD (or 47 kD) protein prevents platelet aggregation.

neutrophils [3] = assay: fMLP-enhanced 32P incorporation into PI, PIP and PIP2 in neutrophils; format: cell-based, human; conditions: fMLP 1 μM; pre-incubation of neutrophils
Method: Metabolic incorporation of [^32 P]sodium phosphate (4 mCi) into phosphatidylinositol (PI), phosphatidylinositol-4-phosphate (PIP) and phosphatidylinositol-4,5-bis-diphosphate (PIP2) is enhanced by chemotactic peptide fMLP (1 μM).

neutrophils [4] = assay: neutrophil trans-endothelial migration through HUVEC monolayer; format: cell-based, human; conditions: IL-1β-activated EC's; pre-treatment of neutrophils
Method: A characteristic of neutrophils is the ability to adhere to activated EC's and to migrate through the EC monolayer into the vascular or extravascular matrix. The effect of TMS on neutrophil interactions with EC's and their subsequent trans-endothelial migration thereof can be monitored in vitro using human umbilical endothelial cells (HUVEC's) (Luscinskas et al., J. Imm., 146, 1617, 1991). Neutrophils are added to a HUVEC monolayer and neutrophil-HUVEC interactions are assessed microscopically following fixation, embedding and staining of monolayer sections.
Under physiological conditions, neutrophils are able to migrate into the collagenous matrix through the EC monolayer. When EC's are activated with IL-1β in M199 medium for 4 hours, neutrophils migrate into the collagenous matrix within 90 minutes.

erythrocyte = erythrocyte metabolic activity under blood storage conditions; format: cell-based; conditions: in vitro, normal blood storage conditions; reduction of erythrocyte enzyme activity
Source text: Similar results can be expected for leukocytes and platelets.

## CCCCCCCCCCCCC/C=C/C(O)C(CO)[N+](C)(C)C (stereo not drawn) [TMS, N,N,N-trimethylsphingosine]
B16BL6 melanoma cells
  lung colonization and tumor development: effective in suppressing
Neutrophils [1]
  Superoxide production in neutrophils: inhibited by TMS in a dose-dependent manner
[2]
  phosphorylation of the 40 kD (or 47 kD) platelet protein: inhibits phosphorylation
Neutrophils [3]
  fMLP-dependent enhancement of 32P incorporation into PI, PIP and PIP2: suppressed strongly
Neutrophils [4]
  Neutrophil migration: inhibited strongly
erythrocyte
  erythrocyte metabolic activity: retards erythrocyte metabolic activity

Source: patent US6031135A, “Trimethylsphingosine derivatives” (Oncomembrane, Inc., priority 1996, dated 2000)
